Results from PMC4105567, “Aurora Kinases as Druggable Targets in Pediatric Leukemia: Heterogeneity in Target Modulation Activities and Cytotoxicity by Diverse Novel Therapeutic Agents” (PLoS ONE, 2014).
Like-named read-outs stand apart in the source and are kept apart here.

Legend:
UOCB1 B-ALL cell line = experiment: Cytotoxicity assay, UOCB1; assay type: cell-based, human; conditions: four days in culture, Alamar blue assay or automated microscopy, ± SD, three experiments
Method: (§1) Cell lines were cultured in Opti-MEM medium (Gibco, Life Technologies Corporation, Burlington, Ontario) supplemented with 10% heat inactivated fetal bovine serum (FBS) (Gibco), 100 units/ml penicillin and 100 units/ml streptomycin (Gibco) and 0.05 mM 2-mercaptoethanol (Sigma-Aldrich, Oakville, Ontario) in T25 flasks (Nalge Nunc, Rochester, New York) or T75 flasks (Corning Incorporated, Corning, New York). All cell cultures were maintained at 37°C in a humidified incubator with 5% CO2.
(§2) For cytotoxicity profiling of Aurora kinase inhibitors against leukemia cell lines, inhibitors or vehicle control (DMSO, Sigma-Aldrich) were diluted in 100 µl of Opti-MEM per well in 96 well plates (Grenier Bio-One, Monroe, North Carolina) in triplicate at final concentrations ranging from 1×10^−6 to 10 µM. 1×10^4 cells per well were seeded and plates were incubated for 4 days. Following incubation for 4 days, cell survival was quantified by Alamar blue assay (Invitrogen) or automated inverted microscopy using the Celigo Cell Cytometer (Cyntellect, San Diego, California). […] During this period of incubation, the absorbance at 570–620 nm was measured (Opsys MR Plate Reader, Dynex Technologies, Chantilly, Virginia) at various time points, depending on the cell line or sample. Percent survival was calculated by comparing the absorbance ratio of the test well to the control well multiplied by 100%, as indicated in the following formula: […]
(§3) For automated inverted microscopy, the number of cells in each well was determined using the direct cell counting application as described previously. Briefly, following adjustment of image acquisition settings for bright-field imaging, the wells containing cells and appropriate dilutions of inhibitors were individually scanned. Based on these images, analysis parameters, including intensity threshold and cell diameter, were modified for optimal inclusion of viable cells in treated and control wells. These parameters were applied for subsequent replicates involving the same leukemia cell line or sample. The percent survival was then calculated as a ratio of the number of cells in treated wells to the number of cells in control wells multiplied by 100%. Given that Aurora kinase inhibitors interfere with cytokinesis, cells that are committed to death may still contain enlarging but intact cytoplasmic content before the eventual loss of cytoplasmic membrane integrity. The accuracy of Alamar blue assay may be, in theory, affected by the timing of these events.

TIB-202 AML cell line = experiment: Cytotoxicity assay, TIB-202; assay type: cell-based, human; conditions: AML cell line TIB-202, four days in culture, Alamar blue assay or automated microscopy, ± SD, three experiments
Method: as §1, §2, §3

B1 B-ALL cell line = experiment: Cytotoxicity assay, B1; assay type: cell-based, human; conditions: four days in culture, Alamar blue assay or automated microscopy, ± SD, three experiments
Method: as §1, §2, §3

CEM T-ALL cell line = experiment: Cytotoxicity assay, CEM; assay type: cell-based, human; conditions: four days in culture, Alamar blue assay or automated microscopy, ± SD, three experiments
Method: as §1, §2, §3

[1] = test system: Patient #1 B-ALL primary leukemia cells; experiment: Cytotoxicity assay, primary sample Patient #1; assay type: cell-based, human; conditions: four days in culture, Alamar blue assay or automated microscopy, one complete study
Method: (§4) These include B-ALL (Patient #1), relapsed AML (Patient #2), AML/CML (Patient #3), infant ALL (Patient #4), and initial ALL presenting with secondary AML (Patient #5). […] The diluted sample was then layered on a Ficoll-Paque (GE Healthcare, Piscataway, New Jersey) gradient at a 1∶2 ratio of Ficoll to diluted sample. Samples were then centrifuged 1800 rpm for 20 minutes at room temperature. The buffy coat was removed with a pipette and transferred to a new centrifuge tube and diluted with PBS. After an additional centrifugation at 1200 rpm, the white blood cell pellet was washed with PBS and centrifuged one last time. Cells were re-suspended in Opti-MEM and viable cells were counted using trypan blue (Invitrogen, Life Technologies Corporation, Burlington, Ontario) exclusion on a haemocytometer. An identical protocol was followed for the isolation of white blood cells, referred to as “normal lymphocytes” in the following paragraphs, from healthy volunteers. Samples grown in culture for up to six months were cultured in Opti-MEM medium supplemented with 10% heat inactivated FBS, penicillin/streptomycin and 2-mercaptoethanol.
as §2, §3

Molt-3 T-ALL cell line = experiment: Cytotoxicity assay, Molt-3; assay type: cell-based, human; conditions: T-ALL cell line Molt-3, four days in culture, Alamar blue assay or automated microscopy, ± SD, three experiments
Method: as §1, §2, §3

SEM B-ALL cell line = experiment: Cytotoxicity assay, SEM; assay type: cell-based; conditions: Homo sapiens, 96 h, four days in culture, Alamar blue assay or automated microscopy, ± SD, three experiments
Method: as §1, §2, §3

NB4 APML cell line = experiment: Cytotoxicity assay, NB4; assay type: cell-based, human; conditions: four days in culture, Alamar blue assay or automated microscopy, ± SD, three experiments
Method: as §1, §2, §3

[2] = test system: Patient #2 relapsed AML primary leukemia cells; experiment: Cytotoxicity assay, primary sample Patient #2; assay type: cell-based, human; conditions: four days in culture, Alamar blue assay or automated microscopy, one complete study
Method: as §4, §2, §3

[3] = test system: Patient #3 AML/CML primary leukemia cells; experiment: Cytotoxicity assay, primary sample Patient #3; assay type: cell-based, human; conditions: four days in culture, Alamar blue assay or automated microscopy, one complete study
Method: as §4, §2, §3

KOPN8 B-ALL cell line = experiment: Cytotoxicity assay, KOPN8; assay type: cell-based, human; conditions: four days in culture, Alamar blue assay or automated microscopy, ± SD, three experiments
Method: as §1, §2, §3

C1 B-ALL cell line = experiment: Cytotoxicity assay, C1; assay type: cell-based, human; conditions: four days in culture, Alamar blue assay or automated microscopy, ± SD, three experiments
Method: as §1, §2, §3

HL-60 RA APML cell line = experiment: Cytotoxicity assay, HL-60 RA; assay type: cell-based, human; conditions: APML cell line HL-60 RA, four days in culture, Alamar blue assay or automated microscopy, ± SD, three experiments
Method: as §1, §2, §3

[4] = test system: normal cells versus leukemia cell lines; experiment: Comparison of cytotoxicity IC50 values, normal cells versus leukemia cell lines; assay type: cell-based, human; conditions: normal lymphocytes and bone marrow stroma versus leukemia cell lines of Table 2
Method: as §2, §3

Bone Marrow Stroma = experiment: Cytotoxicity assay, bone marrow stroma; assay type: cell-based, human; conditions: bone marrow stroma (control for non-leukemia cytotoxicity), four days in culture, ± SD, three experiments
Method: as §2, §3

HL-60 APML cell line = experiment: Cytotoxicity assay, HL-60; assay type: cell-based, human; conditions: APML cell line HL-60, four days in culture, Alamar blue assay or automated microscopy, ± SD, three experiments
Method: as §1, §2, §3

Nalm6 B-ALL cell line = experiment: Cytotoxicity assay, Nalm6; assay type: cell-based, human; conditions: four days in culture, Alamar blue assay or automated microscopy, ± SD, three experiments
Method: as §1, §2, §3

Normal Lymphocytes = experiment: Cytotoxicity assay, normal lymphocytes; assay type: cell-based, human; conditions: normal lymphocytes (control for non-leukemia cytotoxicity), four days in culture, ± SD, three experiments
Method: as §4, §2, §3

Molm13 AML cell line = experiment: Cytotoxicity assay, Molm13; assay type: cell-based, human; conditions: four days in culture, Alamar blue assay or automated microscopy, ± SD, three experiments
Method: as §1, §2, §3

[5] = test system: Patient #5 ALL/AML primary leukemia cells; experiment: Cytotoxicity assay, primary sample Patient #5; assay type: cell-based, human; conditions: read-out: IC50, Patient #5 ALL/AML
Method: as §4, §2, §3

[6] = test system: Patient #4 infant leukemia primary cells; experiment: Cytotoxicity assay, primary sample Patient #4; assay type: cell-based, human; conditions: four days in culture, Alamar blue assay or automated microscopy, one complete study
Method: as §4, §2, §3

MV4-11 AML cell line = experiment: Cytotoxicity assay, MV4-11; assay type: cell-based, human; conditions: AML cell line MV4-11, four days in culture, Alamar blue assay or automated microscopy, ± SD, three experiments
Method: as §1, §2, §3

[7] = Homo sapiens, 96 h, primary sample, four days in culture, Alamar blue assay or automated microscopy, one complete study

Row | Compound | IC50 (UOCB1 B-ALL cell line; Homo sapiens, UoC-B1, 96 h) [nM] | IC50 (TIB-202 AML cell line; Homo sapiens, 96 h) [nM] | IC50 (B1 B-ALL cell line; Homo sapiens, 96 h) [nM] | IC50 (CEM T-ALL cell line; Homo sapiens, 96 h) [nM] | IC50 ([1]; Homo sapiens, 96 h) [nM] | IC50 (Molt-3 T-ALL cell line; Homo sapiens, 96 h) [nM] | IC50 (SEM B-ALL cell line) [nM] | IC50 (NB4 APML cell line; Homo sapiens, 96 h) [nM] | IC50 ([2]; Homo sapiens, 96 h) [nM] | IC50 ([3]; Homo sapiens, 96 h) [nM] | IC50 (KOPN8 B-ALL cell line; Homo sapiens, KOPN-8, 96 h) [nM] | IC50 (C1 B-ALL cell line; Homo sapiens, 96 h) [nM] | IC50 (HL-60 RA APML cell line; Homo sapiens, 96 h) [nM] | IC50 values for the normal cells compared with IC50 values for the leukemia cell lines (potential therapeutic window) [4] | IC50 (Bone Marrow Stroma; Homo sapiens, 96 h) [nM] | IC50 (HL-60 APML cell line; Homo sapiens, 96 h) [nM] | IC50 (Nalm6 B-ALL cell line; Homo sapiens, NALM-6, 96 h) [nM] | IC50 (Normal Lymphocytes; Homo sapiens, Lymphocyte, 96 h) [nM] | IC50 (Molm13 AML cell line; Homo sapiens, MOLM-13, 96 h) [nM] | IC50 ([6]; Homo sapiens, 96 h) [nM] | further results
1 | Nc1nc(Nc2ccc(S(N)(=O)=O)cc2)nn1C(=O)c1c(F)cccc1F [JNJ-7706621] | 200 ± 90 | 3000 ± 1000 | 1000 ± 100 | 300 ± 200 | 1000 | 700 ± 100 | 700 ± 300 | 2000 ± 900 | 700 | > 10000 | 400 ± 80 | 1000 ± 500 | 800 ± 100 | lower than the IC50 values for the normal cells, but not as pronounced | 7000 ± 800 | 5000 ± 2000 | 1000 ± 100 | 7000 ± 500 | 2000 ± 600 | 8000 | IC50 ([5]; Homo sapiens, 96 h): 0.5 nM; IC50 (MV4-11 AML cell line; Homo sapiens, 96 h): 800 ± 90 nM
2 | Cc1cc(Nc2cc(N3CCN(C)CC3)nc(/C=C/c3ccccc3)n2)n[nH]1 [ENMD-2076] | 1000 ± 500 | 800 ± 200 | 1000 ± 300 | 600 ± 50 | 100 | 800 ± 50 | 500 ± 400 | 1000 ± 600 | 8 | 4000 | 600 ± 300 | 700 ± 200 | 700 ± 200 | lower than the IC50 values for the normal cells, but not as pronounced | 3000 ± 1000 | 700 ± 90 | 200 ± 100 | 5000 ± 3000 | 40 ± 20 | 10000 | IC50 [5, 7]: 30 nM; IC50 (MV4-11 AML cell line; Homo sapiens, 96 h): 1 ± 0.1 nM
3 | COc1cc(Nc2ncc3c(n2)-c2ccc(Cl)cc2C(c2c(F)cccc2OC)=NC3)ccc1C(=O)O [MLN8237] | 0.003 | 0.4 | 4 ± 3 | < 0.001 | 6 | < 0.001 | 4 ± 1 | 60 ± 8 | 500 | 700 | 5 ± 2 | 3 ± 1 | 4 ± 2 | higher than the IC50 values for the leukemia cell lines | > 10000 | 9 ± 0.9 | 6 ± 3 | 5000 ± 2000 | 4 ± 2 | 3000 | IC50 [5, 7]: 0.1 nM; IC50 (MV4-11 AML cell line; Homo sapiens, 96 h): 4 ± 1 nM
4 | COc1cc2c(Nc3ccc(NC(=O)c4ccccc4)cc3)ncnc2cc1OCCCN1CCOCC1 [ZM447439] | – | – | – | – | – | – | – | – | – | – | – | – | – | lower than the IC50 values for the normal cells, but not as pronounced | – | – | – | – | – | – | IC50 (UOCB1 B-ALL cell line): 80 ± 20 nM; IC50 (TIB-202 AML cell line): 800 ± 100 nM; IC50 (B1 B-ALL cell line): 1000 ± 50 nM; IC50 (CEM T-ALL cell line): 60 ± 30 nM; IC50 [1]: 20 nM; IC50 (Molt-3 T-ALL cell line): 90 ± 10 nM; IC50 (NB4 APML cell line): 4000 ± 2000 nM; IC50 [2]: > 10000 nM; IC50 [3]: 10000 nM; IC50 (KOPN8 B-ALL cell line): 100 ± 70 nM; IC50 (C1 B-ALL cell line): 80 ± 20 nM; IC50 (HL-60 RA APML cell line): 500 ± 300 nM; IC50 (Bone Marrow Stroma): 2000 ± 400 nM; IC50 (HL-60 APML cell line): 1000 ± 100 nM; IC50 (Nalm6 B-ALL cell line): 80 ± 4 nM; IC50 (Normal Lymphocytes): 6000 ± 800 nM; IC50 (Molm13 AML cell line): 500 ± 300 nM; IC50 ([5]; primary sample, four days in culture, Alamar blue assay or automated microscopy, one complete study): 9 nM; IC50 [6]: 7000 nM; IC50 (MV4-11 AML cell line): 200 ± 100 nM
